The numbers were not newly measured in patent publication US9861098B2, “Method for producing agrichemical-containing resin composition” (Nippon Soda Co., Ltd., priority 2008, dated 2018), which cites them from elsewhere.

Where two headings read alike, the source gives them in different places.

On to `CCSCc1ccccc1OC(=O)NC` [ethiofencarb], for which, under “20° C.”, the water solubility is 1800 ppm. Turning to `CNC(=O)ON=C(C)SC` [methomyl], the water solubility (20° C.) is 58000 ppm. `CNC(=O)Oc1cccc2c1OC(C)(C)O2` [bendiocarb]: the water solubility (20° C.) is 280 ppm. Regarding `CN/C(=N\[N+](=O)[O-])NCc1cnc(Cl)s1` [clothianidin], the water solubility (20° C.) is recorded as 327 ppm. With `N#C/N=C1\SCCN1Cc1ccc(Cl)nc1` [thiacloprid], the water solubility (20° C.) was 185 ppm. Regarding `C/C(=N\C#N)N(C)Cc1ccc(Cl)nc1` [acetamiprid], where the note is “25° C.”, the water solubility is reported as 4250 ppm. With `CCN(Cc1ccc(Cl)nc1)/C(=C/[N+](=O)[O-])NC` [nitenpyram], where the note is “20° C.”, the water solubility is on record as 590000 ppm. As to `CN1COCN(Cc2cnc(Cl)s2)/C1=N\[N+](=O)[O-]` [thiamethoxam], under “20° C.”, the water solubility is 4100 ppm. `COP(=O)(NC(C)=O)SC` (stereo not drawn) [acephate]: the water solubility (20° C.) is given as 790000 ppm.
